In patent publication US20060019241A1, “Na+ and CI-coupled transport system for endogenous opioid peptides” (priority 2004, published 2006):

Key:
Format in all cases: cell-based, human
[1] = system: enkephalin/endorphin transport system in SK—N—SH cells; test: [^3H]deltorphin II uptake in SK—N—SH cells, effect of peptides and amino acids; conditions: for Deltorphin II uptake / effect on [^3H]deltorphin II uptake (in words): [^3H]deltorphin II 25 nM, NaCl, 30 minutes; for Deltorphin II uptake: compound 1 mM; for effect on [^3H]deltorphin II uptake (in words): test substance 1 mM; for IC50: read-out: affinity for the transport system (concentration-dependent inhibition of [^3H]deltorphin II uptake), [^3H]deltorphin II 25 nM
Experimental: (§1) Uptake measurements in control ARPE-19 cells and Tat-ARPE-19 cells. Control ARPE-19 cells and Tat-ARPE-19 cells were maintained in 75-cm^2 culture flasks in Dulbecco's modified Eagle's medium/F12 medium (1:1, volume/volume (v/v)) in the presence of fetal bovine serum (10%) and G418 (100 μg/ml). For uptake measurements, cells were released by trypsin treatment and seeded in 24-well culture plates at an initial density of 0.1×10^6 cells/well. The culture medium was replaced with fresh medium on the second day following the initial seeding and uptake measurements were made on the third day. […] After incubation at 37° C. for a desired time, uptake was terminated by the removal of the medium and washing of the cells with ice-cold uptake buffer. The cells were then dissolved in 1% SDS in 0.2 M NaOH and used for measurement of radioactivity. The uptake buffer in most experiments was 25 mM Hepes/Tris (pH 7.5), containing 140 mM NaCl, 5.4 mM KCl, 1.8 mM CaCl2, 0.8 mM MgSO4 and 5 mM glucose.
Since enkephalins and endorphins are relevant to pain perception and to further provide evidence in support of a role for the transport system in opioidergic neurotransmission, the human neuronal cell line SK—N—SH was tested for expression of the transport system. […] Unless otherwise specified, procedures are as detailed in Example 1.
The concentration of enkephalins and dynorphins was 1 mM.
Finally, the relative affinity of various enkephalins and dynorphins for the transport system in SK—N—SH cells was determined.
To the further characterize the opioid transport of the present invention, various specific peptides that act as positive modulators of the enkephalin/endorphin transport system in the human neuronal cell line SK—N—SH were identified. Unless otherwise specified, procedures are as detailed in Example 1. […] Uptake was measured in the presence of NaCl for 30 minutes. The concentration of the dipeptides was 1 mM.
Uptake was measured in the presence of NaCl for 30 minutes. The concentration of the tripeptides was 1 mM.
Unless otherwise specified, procedures are as described in more detail in Example 1.
The dose-response relationship for the inhibition of the enkephalin/endorphin transport system by L-Lysine and its methyl and ethyl esters is shown in FIG. 15.

[2] = system: deltorphin II transport system in Tat-ARPE-19 cells; test: Inhibition of [^3H]deltorphin II uptake in Tat-ARPE-19 cells; conditions: [^3H]deltorphin II 50 nM; for [^3H] Deltorphin II uptake / [^3H] Deltorphin II uptake (%) of control: Tat-ARPE-19 cells, 30 minutes, NaCl, inhibitor 1 mM; for [^3H] Deltorphin II uptake (%) of control: control = 100
Source text: (§2) Stable transfection of ARPE-19 cells with pcDNA-Tat cDNA. The pGEM2-Tat cDNA construct contained as the insert a 295 basepair (bp) fragment encoding the first exon of HIV-1 Tat gene joined to a 145 bp pET3A transcription terminator. The entire insert (440 bp) was removed from the construct by digestion with PstI and EcoRI and ligated into the multiple cloning region of pcDNA3.1 (−) vector at PstI/EcoRI site so that the insert is downstream of the cytomegalovirus (CMV) promoter. The resultant construct was sequenced to confirm the orientation of the insert. This construct was electroporated into ARPE-19 cells and the stably transfected cell clones were isolated in the presence of Geneticin (G418). To serve as a control, empty pcDNA3.1 vector was electroporated into ARPE-19 cells in an identical manner and the clones harboring the vector were selected by G418 resistance.
as §1
When the influence of Na^+ on the uptake process was investigated, the concentration of NaCl in the uptake buffer was adjusted, as desired, by isoosmotically replacing NaCl with N-methyl-D-glucamine chloride. To assess the influence of Cl^− on the uptake process, the composition of the uptake medium was modified by replacing KCl and CaCl2 with equimolar concentrations of potassium gluconate and calcium gluconate and the concentration of NaCl was adjusted, as desired, by iso-osmotically replacing NaCl with sodium gluconate. Saturation kinetics were analysed by fitting the data to the Michaelis-Menten equation. The Michaelis-Menten constant, Kt, was calculated by non-linear regression analysis and then confirmed by linear regression. Na^+- and Cl^−-activation kinetics were analyzed by fitting the data to the Hill equation and the Hill coefficients for Na^+ and Cl^− (h; the number of Na^+ and Cl^− ions involved in the activation process) and the K0.5 values (the concentration of Na^+ and Cl^−-needed for half-maximal activation) were determined from the analysis. Again, these constants were first calculated by non-linear regression methods and subsequently confirmed by linear regression methods. Experiments were repeated three times in duplicate and the results are given as means±S.E.M.
(§3) Substrate specificity of the deltorphin transport system. […] These peptides consisted of 4-13 amino acids.
Relative affinities of endogenous opioid peptides for the transport system.

[3] = system: deltorphin II transport system in control ARPE-19 cells; test: Inhibition of [^3H]deltorphin II uptake in control ARPE-19 cells; conditions: [^3H]deltorphin II 50 nM, 30 minutes, NaCl, peptide/antagonist 1 mM; for [^3H] Deltorphin II uptake: control ARPE-19 cells (pcDNA vector alone); for [^3H] Deltorphin II uptake (%) of control: control ARPE-19 cells, control = 100
Source text: as §2, §1, §3

NCCCC[C@@H](N)C(=O)O [D-Lys, D-lysine]
Deltorphin II uptake [1]: 2.60 ± 0.31 pmol/30 min/mg protein
effect on [^3H]deltorphin II uptake (in words) [1]: no effect

YGGFMRGL [[Arg^6, Gly^7, Leu^8[ Met-enkephalin]
[^3H] Deltorphin II uptake [2]: 0.09 ± 0.01 pmol/mg protein/30 min
[^3H] Deltorphin II uptake (%) of control [2]: 1%
[^3H] Deltorphin II uptake [3]: 0.04 ± 0.001 pmol/mg protein/30 min
[^3H] Deltorphin II uptake (%) of control [3]: 4%

NCCCCCN [1,5-diaminopentane]
Deltorphin II uptake [1]: 3.24 ± 0.16 pmol/30 min/mg protein

C=CCN1CC[C@]23c4c5ccc(O)c4O[C@H]2C(=O)CC[C@@]3(O)[C@H]1C5 [Naloxone]
[^3H] Deltorphin II uptake [3]: 1.01 ± 0.00 pmol/mg protein/30 min
[^3H] Deltorphin II uptake (%) of control [3]: 94%

N[C@H](Cc1ccc(O)cc1)C(=O)O [D-Tyrosine]
[^3H] Deltorphin II uptake [2]: 4.05 ± 0.09 pmol/mg protein/30 min
[^3H] Deltorphin II uptake (%) of control [2]: 52%
effect on [^3H]deltorphin II uptake (in words) [1]: significant inhibition

C[N+](C)(C)C[C@H](O)CC(=O)[O-] [L-Carnitine]
Deltorphin II uptake [1]: 2.34 ± 0.12 pmol/30 min/mg protein

YGGFLRR [Dynorphin A (1-7), Tyr-Gly-Gly-Phe-Leu-Arg-Arg]
[^3H] Deltorphin II uptake [2]: 0.10 ± 0.02 pmol/mg protein/30 min
[^3H] Deltorphin II uptake (%) of control [2]: 1%
[^3H] Deltorphin II uptake [3]: 0.05 ± 0.002 pmol/mg protein/30 min
[^3H] Deltorphin II uptake (%) of control [3]: 5%
IC50 [1]: 4.6 ± 1.1 µM

CC(C)C[C@H](N)C(=O)O [L-leucine]
effect on [^3H]deltorphin II uptake (in words) [1]: significant inhibition

NCCCC[C@H](N)C(N)=O [L-Lys-amide]
Deltorphin II uptake [1]: 2.92 ± 0.09 pmol/30 min/mg protein

Gly-Gly-Phe
effect on [^3H]deltorphin II uptake (in words) [1]: ability to stimulate the uptake

CC(C)[C@H](N)C(=O)O [L-valine]
effect on [^3H]deltorphin II uptake (in words) [1]: significant inhibition

NCCCCCC(=O)O [6-amino hexanoic acid]
Deltorphin II uptake [1]: 2.92 ± 0.18 pmol/30 min/mg protein

NCCCCCCN [Hexamethylenediamine]
Deltorphin II uptake [1]: 2.83 ± 0.13 pmol/30 min/mg protein

NCCC[C@H](N)C(=O)O [L-Ornitine]
Deltorphin II uptake [1]: 1.87 ± 0.08 pmol/30 min/mg protein

O=C1CC[C@@]2(O)[C@H]3Cc4ccc(O)c5c4[C@@]2(CCN3CC2CC2)[C@H]1O5 [Naltrexone]
[^3H] Deltorphin II uptake [3]: 1.12 ± 0.02 pmol/mg protein/30 min
[^3H] Deltorphin II uptake (%) of control [3]: 104%

CC(=O)NCCCC[C@H](N)C(=O)O [ε-N-acetyl-L-Lys]
Deltorphin II uptake [1]: 2.38 ± 0.13 pmol/30 min/mg protein

CC(=O)N[C@@H](CCCCN)C(=O)O [α-N-acetyl-L-Lys]
Deltorphin II uptake [1]: 2.82 ± 0.08 pmol/30 min/mg protein

Tyr-Gly-Gly-Phe-Met [Met-enkephalin]
competition with deltorphin for the uptake process (in words) ([2]; Tat-ARPE-19 / RPE cells, compound 1 mM): marked inhibition
[^3H] Deltorphin II uptake [2]: 0.50 ± 0.01 pmol/mg protein/30 min
[^3H] Deltorphin II uptake (%) of control [2]: 6%
[^3H] Deltorphin II uptake [3]: 0.06 ± 0.004 pmol/mg protein/30 min
[^3H] Deltorphin II uptake (%) of control [3]: 5%
IC50 [1]: 10.7 ± 3.1 µM
